Source: publication PMC2866134 (Bioorganic & medicinal chemistry letters, 2010)

Key:
PDGFR-β = PDGFR-β (Homo sapiens, UniProt P09619); assay: PDGFR-β inhibition, whole cell phosphotyrosine ELISA cytoblot; assay type: cell-based; settings: whole cell assay
VEGFR-1 = VEGFR-1 (Homo sapiens, UniProt P17948); assay: VEGFR-1 inhibition, whole cell phosphotyrosine ELISA cytoblot; assay type: cell-based; settings: whole cell assay
Sequence of VEGFR-1 (P17948 27-1338): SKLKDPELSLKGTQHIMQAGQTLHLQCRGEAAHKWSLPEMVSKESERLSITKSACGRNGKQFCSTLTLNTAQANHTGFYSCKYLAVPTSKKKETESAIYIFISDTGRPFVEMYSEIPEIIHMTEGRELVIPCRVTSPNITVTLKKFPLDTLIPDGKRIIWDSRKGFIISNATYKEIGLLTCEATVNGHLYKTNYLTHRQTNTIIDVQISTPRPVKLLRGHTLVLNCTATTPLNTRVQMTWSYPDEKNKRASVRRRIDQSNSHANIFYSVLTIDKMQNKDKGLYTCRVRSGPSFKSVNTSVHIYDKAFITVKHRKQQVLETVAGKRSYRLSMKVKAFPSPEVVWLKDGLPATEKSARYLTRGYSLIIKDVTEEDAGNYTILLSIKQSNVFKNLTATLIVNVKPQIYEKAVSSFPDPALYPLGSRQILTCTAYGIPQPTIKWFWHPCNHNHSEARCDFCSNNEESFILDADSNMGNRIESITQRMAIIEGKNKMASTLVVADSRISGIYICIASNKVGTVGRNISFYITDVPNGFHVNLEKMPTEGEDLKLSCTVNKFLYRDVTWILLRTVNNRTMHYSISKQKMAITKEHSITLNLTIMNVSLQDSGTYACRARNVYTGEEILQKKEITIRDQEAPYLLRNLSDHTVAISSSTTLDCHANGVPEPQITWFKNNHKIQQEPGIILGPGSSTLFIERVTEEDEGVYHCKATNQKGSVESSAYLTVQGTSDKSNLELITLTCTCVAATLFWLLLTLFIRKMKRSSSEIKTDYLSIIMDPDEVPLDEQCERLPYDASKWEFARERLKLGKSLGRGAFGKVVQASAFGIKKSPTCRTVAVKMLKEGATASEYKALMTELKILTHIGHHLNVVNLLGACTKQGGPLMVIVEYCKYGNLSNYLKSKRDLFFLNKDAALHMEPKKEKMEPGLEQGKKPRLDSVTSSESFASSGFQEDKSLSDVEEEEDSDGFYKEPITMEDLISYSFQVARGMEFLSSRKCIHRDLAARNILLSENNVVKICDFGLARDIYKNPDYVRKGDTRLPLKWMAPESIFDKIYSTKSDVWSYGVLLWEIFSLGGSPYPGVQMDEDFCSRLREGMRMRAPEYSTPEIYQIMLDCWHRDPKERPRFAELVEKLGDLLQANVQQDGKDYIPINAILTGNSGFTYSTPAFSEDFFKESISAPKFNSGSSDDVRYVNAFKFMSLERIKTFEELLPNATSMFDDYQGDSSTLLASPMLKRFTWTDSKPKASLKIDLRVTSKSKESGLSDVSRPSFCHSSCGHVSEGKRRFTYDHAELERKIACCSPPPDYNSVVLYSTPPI

Sequence of PDGFR-β (P09619 33-1106): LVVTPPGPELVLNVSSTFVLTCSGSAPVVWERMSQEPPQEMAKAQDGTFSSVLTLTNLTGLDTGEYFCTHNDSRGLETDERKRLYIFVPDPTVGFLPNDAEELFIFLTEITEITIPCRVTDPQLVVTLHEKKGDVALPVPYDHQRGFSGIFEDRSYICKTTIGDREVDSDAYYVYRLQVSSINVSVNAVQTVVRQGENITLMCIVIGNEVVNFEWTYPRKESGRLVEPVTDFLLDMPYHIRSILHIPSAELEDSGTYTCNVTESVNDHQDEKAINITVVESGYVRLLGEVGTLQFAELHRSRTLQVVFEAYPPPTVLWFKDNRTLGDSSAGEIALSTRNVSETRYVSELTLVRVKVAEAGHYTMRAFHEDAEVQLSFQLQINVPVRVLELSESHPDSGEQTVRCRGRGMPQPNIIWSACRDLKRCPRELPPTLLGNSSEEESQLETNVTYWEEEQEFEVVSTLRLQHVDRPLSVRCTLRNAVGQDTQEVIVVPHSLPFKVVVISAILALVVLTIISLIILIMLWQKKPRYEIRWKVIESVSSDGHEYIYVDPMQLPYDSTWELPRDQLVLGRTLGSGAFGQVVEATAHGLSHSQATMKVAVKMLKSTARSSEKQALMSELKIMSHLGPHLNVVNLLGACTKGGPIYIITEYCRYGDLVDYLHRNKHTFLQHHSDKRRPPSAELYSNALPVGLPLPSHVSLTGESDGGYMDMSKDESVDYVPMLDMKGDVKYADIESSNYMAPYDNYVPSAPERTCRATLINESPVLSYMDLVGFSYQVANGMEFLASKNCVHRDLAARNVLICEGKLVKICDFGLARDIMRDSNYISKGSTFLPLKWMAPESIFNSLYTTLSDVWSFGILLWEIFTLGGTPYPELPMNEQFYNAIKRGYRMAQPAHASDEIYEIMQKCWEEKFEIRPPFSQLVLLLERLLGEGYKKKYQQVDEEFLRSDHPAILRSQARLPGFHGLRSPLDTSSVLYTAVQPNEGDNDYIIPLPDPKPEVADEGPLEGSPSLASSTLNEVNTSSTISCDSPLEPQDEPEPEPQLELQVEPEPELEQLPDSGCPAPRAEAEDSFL

Row | Structure (SMILES) | PDGFR-β inhibition, result in words (PDGFR-β) | VEGFR-1 inhibition, result in words (VEGFR-1)
1 | C#Cc1cccc(Nc2ncnc3[nH]c(CCc4ccccc4)cc23)c1 [Compound 20] | inactive | 
2 | FC(F)(F)c1cccc(Nc2ncnc3[nH]c(CCc4ccccc4)cc23)c1 [Compound 21] | inactive | inactive
3 | Fc1ccc(Nc2ncnc3[nH]c(CCc4ccccc4)cc23)cc1Br [Compound 22] |  | inactive
4 | Fc1ccc(Nc2ncnc3[nH]c(CCc4ccccc4)cc23)cc1C(F)(F)F [Compound 23] | inactive | 
5 | Fc1cc(Cl)ccc1Nc1ncnc2[nH]c(CCc3ccccc3)cc12 [Compound 24] | inactive | inactive
